In patent publication US8080657B2, “Compounds of reverse turn mimetics and the use thereof” (Choongwae Pharma Corporation, priority 2008, dated 2011):
Like-named read-outs stand apart in the source and are kept apart here.

System: Wnt signaling
Assay: TopFlash reporter gene bioassay in SW480 cells
Type: cell-based
Conditions: Homo sapiens
[1] = SW480, TopFlash reporter gene assay, inhibition of Wnt signaling, read-out: RGA, IC50 (μM) TopF
[2] = SW480, read-out: RGA, IC50 (μM) TopF

Row | SMILES | IC50 [1] [µM] | other results
1 | C=CCN1CC(=O)N2[C@@H](Cc3ccc(O)cc3)C(=O)N(Cc3ccc(OCC)cc3)C[C@@H]2N1C(=O)NCc1ccccc1 [compound 249] | 6.8 ± 1.5 | –
2 | C=CCN1CC(=O)N2[C@@H](Cc3ccc(O)cc3)C(=O)N(Cc3cccc(-c4cccc(OC)c4)n3)C[C@@H]2N1C(=O)NCc1ccccc1 [compound 218] | 3.96 ± 0.93 | –
3 | C=CCN1CC(=O)N2[C@@H](Cc3ccc(O)cc3)C(=O)N(Cc3cccc(C(=O)NCCCOCCCC)c3)C[C@@H]2N1C(=O)NCc1ccccc1 [compound 135] | 1.77 ± 0.15 | –
4 | C=CCN1CC(=O)N2[C@@H](Cc3ccc(O)cc3)C(=O)N(Cc3csc4c([N+](=O)[O-])cccc34)C[C@@H]2N1C(=O)NCc1ccccc1 [compound 59] | 0.78 ± 0.15 | –
5 | C=CCN1CC(=O)N2[C@@H](Cc3ccc(O)cc3)C(=O)N(Cc3ccc(OC)c(Cl)c3)C[C@@H]2N1C(=O)NCc1ccccc1 [compound 117] | 1.44 ± 0.22 | –
6 | C=CCN1CC(=O)N2[C@@H](Cc3ccc(O)cc3)C(=O)N(Cc3cccc(Br)c3)C[C@@H]2N1C(=O)NCc1ccccc1 [Compound F] | – | IC50 (SW480, 24 h, SW480 cells, 24 hours treatment, luciferase assay, read-out: IC50 for SW480 cells, TopFlash reporter gene bioassay): 0.73 ± 0.08 µM
7 | C=CCN1CC(=O)N2[C@@H](Cc3ccc(O)cc3)C(=O)N(Cc3cccc(C(=O)NCCO)c3)C[C@@H]2N1C(=O)NCc1ccccc1 [compound 256] | 7.2 ± 1.06 | –
8 | C=CCN1CC(=O)N2[C@@H](Cc3ccc(O)cc3)C(=O)N(Cc3csc4ccc(NC(N)=O)cc34)C[C@@H]2N1C(=O)NCc1ccccc1 [compound 195] | 20.9 ± 3.94 | –
9 | C=CCN1CC(=O)N2[C@@H](Cc3ccc(O)cc3)C(=O)N(Cc3cccc(C(=O)OC)c3[N+](=O)[O-])C[C@@H]2N1C(=O)NCc1ccccc1 [compound 131] | 1.66 ± 0.27 | –
10 | C=CCN1CC(=O)N2[C@@H](Cc3ccc(O)cc3)C(=O)N(Cc3cccc4ccn(Cc5cccc([N+](=O)[O-])c5)c34)C[C@@H]2N1C(=O)NCc1ccccc1 [compound 204] | 3.13 ± 0.44 | –
11 | C=CCN1CC(=O)N2[C@@H](Cc3ccc(OP(=O)(O)O)cc3)C(=O)N(Cc3cccc(N4CCCC4=O)c3)C[C@@H]2N1C(=O)NCc1ccccc1 [compound 94] | – | IC50 [2]: 1.09 ± 0.16 µM
12 | C=CCN1CC(=O)N2[C@@H](Cc3ccc(O)cc3)C(=O)N(Cc3cccnc3-c3cccc(C#N)c3)C[C@@H]2N1C(=O)NCc1ccccc1 [compound 257] | 7.26 ± 1.3 | –
13 | C=CCN1CC(=O)N2[C@@H](Cc3ccc(O)cc3)C(=O)N(Cc3cccc(C(=O)N4CCCC4)c3)C[C@@H]2N1C(=O)NCc1ccccc1 [compound 189] | – | IC50 [2]: 2.68 ± 0.48 µM
14 | C=CCN1CC(=O)N2C(Cc3ccc(O)cc3)C(=O)N(Cc3ccccc3N3CCNCC3)CC2N1C(=O)NCc1ccccc1 (stereo not shown) [compound 221] | 36.1 ± 2.69 | –
15 | C=CCN1CC(=O)N2[C@@H](Cc3ccc(O)cc3)C(=O)N(Cc3cccc(-c4ccccc4)c3)C[C@@H]2N1C(=O)NCc1ccccc1 [compound 144] | 1.94 ± 0.48 | –
16 | C=CCN1CC(=O)N2[C@@H](Cc3ccc(O)cc3)C(=O)N(Cc3ccccc3Sc3ccc(Cl)cc3)C[C@@H]2N1C(=O)NCc1ccccc1 [compound 219] | 3.97 ± 0.57 | –
17 | C=CCN1CC(=O)N2[C@@H](Cc3ccc(O)cc3)C(=O)N(Cc3ccc(OCCCCC)cc3)C[C@@H]2N1C(=O)NCc1ccccc1 [compound 154] | 11.8 ± 0.9 | –
18 | C=CCN1CC(=O)N2[C@@H](Cc3ccc(O)cc3)C(=O)N(Cc3cccc(C(=O)N4CCOCC4)c3)C[C@@H]2N1C(=O)NCc1ccccc1 [compound 212] | 3.62 ± 0.63 | –
19 | C=CCN1CC(=O)N2[C@@H](Cc3ccc4[nH]ncc4c3)C(=O)N(Cc3cccc4scnc34)C[C@@H]2N1C(=O)NCc1ccccc1 (racemic) [compound 237] | 46.7 ± 6.13 | –
20 | C#Cc1ccc(CNC(=O)N2[C@H]3CN(Cc4cccc(OC)c4OC)C(=O)[C@H](Cc4ccc(O)cc4)N3C(=O)CN2CC=C)cc1 [compound 184] | 2.56 ± 0.29 | –
21 | C=CCN1CC(=O)N2[C@@H](Cc3ccc(O)cc3)C(=O)N(Cc3ccc(F)c4scnc34)C[C@@H]2N1C(=O)NCc1ccc(OC)c(OC)c1 [compound 224] | 4.3 ± 0.7 | –
22 | C=CCN1CC(=O)N2[C@@H](Cc3ccc(O)cc3)C(=O)N(Cc3cccc(C(=O)N(C)C)n3)C[C@@H]2N1C(=O)NCc1ccccc1 [compound 197] | 21.8 ± 3.69 | –
23 | C=CCN1CC(=O)N2C(Cc3ccc(OP(=O)(O)O)cc3)C(=O)N(Cc3cccc4sc(N)nc34)C[C@@H]2N1C(=O)NCc1ccccc1 (stereo partly shown) [compound 14] | – | IC50 [2]: 0.37 ± 0.07 µM
24 | C=CCN1CC(=O)N2[C@@H](Cc3ccc(O)cc3)C(=O)N(Cc3cccc(OC)c3OCCN3CCCCC3)C[C@@H]2N1C(=O)NCc1ccccc1 [compound 173] | 2.26 ± 0.16 | –
25 | C=CCN1CC(=O)N2C(CN(Cc3cccc(C#CC(C)(C)C)n3)C(=O)[C@@H]2Cc2ccc(O)cc2)N1C(=O)NCc1ccccc1 (stereo partly shown) [compound 116] | 1.43 ± 0.26 | –
26 | C=CCN1CC(=O)N2[C@@H](Cc3ccc(O)cc3)C(=O)N(Cc3csc4ccc(N(Cc5ccccc5)Cc5ccccc5)cc34)C[C@@H]2N1C(=O)NCc1ccccc1 [compound 200] | 25.9 ± 4.72 | –
27 | C=CCN1CC(=O)N2[C@@H](Cc3ccc(O)cc3)C(=O)N(Cc3csc4ccc(NC=O)cc34)C[C@@H]2N1C(=O)NCc1ccccc1 [compound 185] | – | IC50 [2]: 2.61 ± 0.19 µM
28 | C=CCN1CC(=O)N2[C@@H](Cc3ccc(O)cc3)C(=O)N(Cc3cccc(C(=O)N4CC=CC4)c3)C[C@@H]2N1C(=O)NCc1ccccc1 [compound 239] | 5.09 ± 1.32 | –
29 | C=CCN1CC(=O)N2[C@@H](Cc3ccc(O)cc3)C(=O)N(Cc3ccc(OC)c(F)c3)C[C@@H]2N1C(=O)NCc1ccccc1 [compound 193] | 2.86 ± 0.49 | –
30 | C=CCN1CC(=O)N2[C@@H](Cc3ccc(O)cc3)C(=O)N(Cc3cccc4c3ncn4CC(N)=O)C[C@@H]2N1C(=O)NCc1ccccc1 [compound 267] | 6.63 ± 1.35 | –

More lines, main results first:

Row | IC50 [1] [µM] | SMILES | other results
31 | 1.41 ± 0.38 | C=CCN1CC(=O)N2[C@@H](Cc3ccc(O)cc3)C(=O)N(Cc3cccc(N(C)C=O)c3)C[C@@H]2N1C(=O)NCc1ccccc1 [compound 113] | –
32 | 0.69 ± 0.19 | C=CCN1CC(=O)N2[C@@H](Cc3ccc(O)cc3)C(=O)N(Cc3cccc4c3ccn4S(=O)(=O)c3ccc(C)cc3)C[C@@H]2N1C(=O)NCc1ccccc1 [compound 47] | –
33 | 0.43 ± 0.08 | C=CCN1CC(=O)N2[C@@H](Cc3ccc(O)cc3)C(=O)N(Cc3cccc4c(Cl)c[nH]c34)C[C@@H]2N1C(=O)NCc1ccccc1 [compound 19] | –
34 | 1.1 ± 0.12 | C=CCN1CC(=O)N2[C@@H](Cc3ccc(O)cc3)C(=O)N(Cc3cccc(C4CC4)n3)C[C@@H]2N1C(=O)NCc1ccccc1 [compound 95] | –
35 | 0.91 ± 0.11 | C=CCN1CC(=O)N2[C@@H](Cc3ccc(O)cc3F)C(=O)N(Cc3ccc(F)cc3F)C[C@@H]2N1C(=O)NCc1ccccc1 [compound 74] | –
36 | 0.43 ± 0.1 | C=CCN1CC(=O)N2[C@@H](Cc3ccc(O)cc3)C(=O)N(Cc3cccc4ccn(S(=O)(=O)c5ccc(Cl)cc5)c34)C[C@@H]2N1C(=O)NCc1ccccc1 [compound 20] | –
37 | 0.39 ± 0.05 | C=CCN1CC(=O)N2[C@@H](Cc3ccc(O)cc3)C(=O)N(Cc3ccc(F)c(Br)c3)C[C@@H]2N1C(=O)NCc1ccccc1 [compound 16] | –
38 | 0.26 ± 0.08 | C=CCN1CC(=O)N2[C@@H](Cc3ccc(O)cc3)C(=O)N(Cc3cccc(-c4cccnc4F)c3)C[C@@H]2N1C(=O)NCc1ccccc1 [compound 7] | –
39 | 0.6 ± 0.13 | C=CCN1CC(=O)N2[C@@H](Cc3ccc(O)cc3)C(=O)N(Cc3cccc4c3ncn4C(=O)CN)C[C@@H]2N1C(=O)NCc1ccccc1 [compound 37] | –
40 | 1.27 ± 0.1 | C=CCN1CC(=O)N2[C@@H](Cc3ccc(O)cc3)C(=O)N(Cc3ccc(F)c4scnc34)C[C@@H]2N1C(=O)NCCc1cccs1 [compound 104] | –
41 | 0.74 ± 1.46 | C=CCN1CC(=O)N2[C@@H](Cc3ccc(O)cc3)C(=O)N(Cc3cccc(C(=O)NCc4ccccc4)c3)C[C@@H]2N1C(=O)NCc1ccccc1 [compound 56] | –
42 | 0.63 ± 0.06 | C=CCN1CC(=O)N2[C@@H](Cc3ccc(O)cc3)C(=O)N(Cc3cccc(-c4ccc(N)nc4)c3)C[C@@H]2N1C(=O)NCc1ccccc1 [compound 40] | –
43 | 0.56 ± 0.07 | C=CCN1CC(=O)N2[C@@H](Cc3ccc(O)cc3)C(=O)N(Cc3csc4ccc([N+](=O)[O-])cc34)C[C@@H]2N1C(=O)NCc1ccccc1 [compound 32] | –
44 | 1.07 ± 0.2 | C=CCN1CC(=O)N2[C@@H](Cc3ccc(O)cc3)C(=O)N(Cc3cccc4c3nc(C(F)(F)F)n4C)C[C@@H]2N1C(=O)NCc1ccccc1 [compound 93] | –
45 | 1.17 ± 0.15 | C=CCN1CC(=O)N2[C@@H](Cc3ccc(O)cc3)C(=O)N(Cc3cccc(-c4cccnc4OC)c3)C[C@@H]2N1C(=O)NCc1ccccc1 [compound 98] | –
46 | 0.66 ± 0.06 | C=CCN1CC(=O)N2[C@@H](Cc3ccc(O)cc3)C(=O)N(Cc3csc4ccc(Cl)cc34)C[C@@H]2N1C(=O)NCc1ccccc1 [compound 43] | –
47 | 1.03 ± 0.11 | C=CCN1CC(=O)N2[C@@H](Cc3ccc(O)cc3)C(=O)N(Cc3cccc(C(C)(C)C)c3OC)C[C@@H]2N1C(=O)NCc1ccccc1 [compound 89] | –
48 | 1.01 ± 0.24 | C=CCN1CC(=O)N2[C@@H](Cc3ccc(O)cc3)C(=O)N(Cc3cccc4c(=O)ccoc34)C[C@@H]2N1C(=O)NCc1ccccc1 [compound 87] | –
49 | 1.28 ± 0.1 | C=CCN1CC(=O)N2[C@@H](Cc3ccc(O)cc3)C(=O)N(Cc3cccc(C(=O)NCC4CCCO4)c3)C[C@@H]2N1C(=O)NCc1ccccc1 (stereo partly shown) [compound 106] | –
50 | 0.42 ± 0.12 | C=CCN1CC(=O)N2[C@@H](Cc3ccc(O)cc3)C(=O)N(Cc3cccc(-c4cccc(NC(C)=O)c4)c3)C[C@@H]2N1C(=O)NCc1ccccc1 [compound 18] | –
51 | 0.084 ± 0.016 | C=CCN1CC(=O)N2[C@@H](Cc3ccc(O)cc3)C(=O)N(Cc3cccc4c(C(C)=O)cn(S(=O)(=O)c5ccc(C)cc5)c34)C[C@@H]2N1C(=O)NCc1ccccc1 [compound 2] | –
52 | 0.94 ± 0.04 | C=CCCNC(=O)c1cccc(CN2C[C@H]3N(C(=O)CN(CC=C)N3C(=O)NCc3ccccc3)[C@@H](Cc3ccc(O)cc3)C2=O)c1 [compound 76] | –
53 | 0.52 ± 0.09 | C=CCN1CC(=O)N2[C@@H](Cc3ccc(O)cc3)C(=O)N(Cc3cccc4c(-c5ccccc5)cn(S(=O)(=O)c5ccccc5)c34)C[C@@H]2N1C(=O)NCc1ccccc1 [compound 27] | –
54 | 0.78 ± 0.13 | C=CCN1CC(=O)N2[C@@H](Cc3ccc(O)cc3)C(=O)N(Cc3ccccc3OC(F)F)C[C@@H]2N1C(=O)NCc1ccccc1 [compound 58] | –
55 | 1.27 ± 0.24 | C=CCN1CC(=O)N2[C@@H](Cc3ccc(O)cc3)C(=O)N(Cc3cccc(OC)c3OS(=O)(=O)c3ccc(Cl)cc3)C[C@@H]2N1C(=O)NCc1ccccc1 [compound 105] | –
